Key:
[1] = tested on: LLC tumor cells co-cultured with monocytes; assay: Tumor cell co-culture with monocytes/macrophages; assay type: cell-based, mice; settings: nano-molar concentrations of DSF
Method: Monocytes were enriched from bone marrow cells by MACS negative selection for CD3, B220, Ly-6G, NK1.1, Ter119, CD49b, and c-kit. The percentage of Ly-6C^hi Ly-6G^− monocytes were >80%. Monocytes (1 × 10^5) and 100 DsRed^+ LLC tumor cells were co-cultured for 24 h. Proliferating tumor cell clusters containing more than 10 cells were enumerated by fluorescent microscopy. For flow cytometry analysis, cultured cells were harvested with trypsin-EDTA after 3 days of culture. Cells were stained with CD45-FITC (clone 102, BioLegend), then stained with annexin V-APC in binding buffer (BD biosciences). For detection of DNA synthesis, 5-ethynyl-2´-deoxyuridine (EdU) was added to the culture in the final hour of incubation. Intracellular EdU was stained using Click-iT® EdU Alexa Fluor™ 647 flow cytometry assay kits (Thermo Fisher Scientific) according to manufacturer’s instructions. Flow cytometry data were obtained by gating CD45(−) DsRed(+) cells and analyzing annexin V-positive cells or EdU-positive cells. Dead cells were excluded by Zombie Aqua staining (BioLegend). Stained cells were measured using Flow-Count™ Fluorospheres (Beckman Coulter) for the determination of absolute counts.

THP-1 cells = assay: Chemotaxis assay using TAXIScan; assay type: cell-based, human; settings: DSF 50 µM, towards CCL2
Method: The TAXIScan device (ECI, Tokyo, Japan) is an optically accessible horizontal chemotaxis apparatus consisting of an etched silicon substrate and a flat glass plate, which form two compartments separated by a 5-μm deep microchannel. THP-1 cells were applied through a hole connected to one of the compartments and aligned along the start line on the edge of the channel. Human CCL2 (10 ng mL^–1) was applied through a hole connected to the other compartment to form a concentration gradient in the channel. Time-lapse images were recorded every 30 s for 30 min and cell movement was analyzed using TAXIScan analyzer software (ECI, Tokyo, Japan).

B16 tumor cells = assay: B16 tumor cell growth (WST-1 assay); assay type: cell-based; settings: B16, 48 h
Method: To evaluate the effects of compounds on cell growth, cells were incubated with inhibitors for 48 h, then WST-1 (Dojindo) was added to the culture for the final 30 min. An Envision instrument (PerkinElmer) was used to measure the absorbance of each well at 450 nm versus a 650-nm reference to detect the amount of formazan produced from WST-1 by mitochondrial dehydrogenases in viable cells.

p53-MDM2 interaction = p53-MDM2 interaction (Homo sapiens, UniProt Q00987); assay: HTRF p53-MDM2 interaction counter assay; assay type: binding
Sequence of p53-MDM2 interaction (Q00987 whole entry): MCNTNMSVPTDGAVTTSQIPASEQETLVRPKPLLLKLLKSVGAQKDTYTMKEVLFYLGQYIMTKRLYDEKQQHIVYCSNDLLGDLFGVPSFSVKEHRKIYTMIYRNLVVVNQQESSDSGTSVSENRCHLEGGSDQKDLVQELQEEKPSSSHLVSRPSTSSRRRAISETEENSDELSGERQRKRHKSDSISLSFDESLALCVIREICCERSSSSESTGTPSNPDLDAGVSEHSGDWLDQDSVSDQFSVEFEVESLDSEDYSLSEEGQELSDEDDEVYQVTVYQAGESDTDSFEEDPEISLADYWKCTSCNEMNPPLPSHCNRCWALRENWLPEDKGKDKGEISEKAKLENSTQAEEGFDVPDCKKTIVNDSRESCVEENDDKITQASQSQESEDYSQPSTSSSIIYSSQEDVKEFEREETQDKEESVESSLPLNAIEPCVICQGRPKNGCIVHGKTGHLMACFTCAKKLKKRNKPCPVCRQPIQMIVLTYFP

peritoneal macrophages = assay: CCL2-induced pseudopodia protrusion of macrophages; assay type: cell-based, mice; settings: 25 µM, 1 h pre-incubation
Method: Peritoneal macrophages were isolated from mice, seeded in the 8-well glass-based dishes (Life Technologies) and incubated overnight at 37 °C to allow the cells to adhere. After serum starvation for 6 h, cells were stimulated with chemokine at a concentration of 100 ng mL^–1, then fixed with 4% paraformaldehyde (Wako) and permeabilized with 0.1% Triton X-100 (Wako) in PBS, followed by staining with phalloidin conjugated with Alexa Fluor 594 (Life Technologies). […] Tumor macrophages were isolated from collagenase digestion of tumor tissue as attached cells by washing non-adherent cells away and further culturing them in DMEM containing 10 nM M-CSF (BD Biosciences) and 10% serum. After co-culture with LLC tumor cells, confocal images were obtained using an SP5 confocal microscope (Leica Microsystems). Cells were classified as lamellipodial/round-shaped or filopodial based on their morphology and the ratio of each type in the visual field determined.

B16 melanoma = assay: B16 lung metastasis model; assay type: in vivo, C57BL/6 mice
Method: For evaluating subcutaneous tumor growth, LLC or B16 cells (5 × 10^5) in 50 μl PBS were inoculated subcutaneously into the right flanks of mice. Mice were euthanized when their tumor volumes reached 4000 mm^3. Tumor sizes were measured twice a week using calipers. Tumor volume was calculated using the following formula: Volume = (width)^2 × length/2. For the lung metastasis model, 1 × 10^6 LLC or B16 cells in 200 μl PBS were injected intravenously into mice. Mice were euthanized at day 10 after tumor injection for the LLC model and day 5–9 for the B16 model, and the lungs were isolated after perfusion with PBS via the left ventricle. Visible lung metastases were counted in the left lobe. The diameters of metastatic nodules in the lung lobe image were measured using ImageJ software. […] Anti-PD-1 antibody (clone J43, BioXcell) was injected intraperitoneally at a dose of 200 μg per mouse on day 5, 8, 14, and 18 after tumor inoculation. Mice were anesthetized and perfused with PBS and the left lungs were isolated. […] Fluorescence images derived from B16-DsRed cells and stained antibodies were obtained using an SP5 confocal microscope (Leica Microsystems). The F4/80 + macrophage number accumulated in and around the tumor nodule visualized by fluorescent protein was counted per nodule of similar sizes among the control and FROUNT-cKO, vehicle, or DSF-treated groups.

CCN(CC)C(=S)SSC(=S)N(CC)CC [DSF, disulfiram]
tumor cell growth induced by co-culture with monocytes [1]: inhibited | chemotaxis directionality (THP-1 cells): impaired | chemotaxis velocity (THP-1 cells): impaired | in vitro growth (B16 tumor cells): no effect | effect on p53-MDM2 interaction (p53-MDM2 interaction; HTRF): did not affect | IC50 (p53-MDM2 interaction; HTRF titration assay): > 1000 nM | CCL2-induced pseudopodia protrusion (peritoneal macrophages): inhibited | lung metastatic nodule formation (B16 melanoma; B16 i.v., DSF 40 mg kg-1 i.p. daily): significantly reduced | macrophage accumulation around tumor metastatic nodules (B16 melanoma; day 12 after B16 tumor cell injection, F4/80): diminished

From publication PMC6992764 (Nature Communications, 2020)
